In paper PMC7581941, “Schedule-Dependent Synergy Between the Histone Deacetylase Inhibitor Belinostat and the Dihydrofolate Reductase Inhibitor Pralatrexate in T-and B-cell Lymphoma Cells in vitro” (Frontiers in Cell and Developmental Biology, 2020):
“And” between values parts separate entries of the source, which are not always exact repeats. Equal values may be shown once. Read-outs that look alike come from different tables or passages of the source.

Key:
[1] = biological target: T1, RFC (Homo sapiens, UniProt P41440); experiment: RFC competition assay: inhibition of [3H]-l-LV uptake in CCRF-CEM/7A cells (RFC+++); assay type: cell-based
T1 construct: CEM-7A cells overexpress the RFC 30-fold over wild-type CCRF-CEM cells; endogenous in cells; host or cells: CCRF-CEM/7A (CEM-7A) cells
T1 sequence (P41440 1-591): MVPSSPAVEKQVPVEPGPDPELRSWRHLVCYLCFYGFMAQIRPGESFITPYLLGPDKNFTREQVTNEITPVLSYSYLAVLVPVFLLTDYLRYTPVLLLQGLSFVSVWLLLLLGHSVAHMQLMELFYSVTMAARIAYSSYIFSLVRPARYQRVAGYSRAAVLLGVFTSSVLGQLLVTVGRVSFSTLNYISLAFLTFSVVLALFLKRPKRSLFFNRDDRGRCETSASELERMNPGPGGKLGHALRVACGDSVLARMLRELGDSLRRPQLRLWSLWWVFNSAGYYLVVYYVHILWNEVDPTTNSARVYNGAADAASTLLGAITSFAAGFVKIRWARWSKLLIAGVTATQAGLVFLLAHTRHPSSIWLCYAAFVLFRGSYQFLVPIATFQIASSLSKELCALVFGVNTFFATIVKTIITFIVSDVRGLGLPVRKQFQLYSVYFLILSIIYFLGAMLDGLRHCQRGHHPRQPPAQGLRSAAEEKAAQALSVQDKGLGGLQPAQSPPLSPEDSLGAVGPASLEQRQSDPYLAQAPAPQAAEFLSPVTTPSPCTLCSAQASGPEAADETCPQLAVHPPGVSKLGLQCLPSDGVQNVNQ
Experimental: For FRα and FRβ, we used an intact cell binding assay for competitive binding with KB cells and CHO-FRβ cells, respectively. […] For RFC we used a competition assay with 5 μM [^3H]-l-LV in CCRF-CEM/7A cells (RFC+++) for 2 min at 37°C.
Transport was determined by evaluation of the uptake of 5 μM [^3H]-l-LV for 2 min in CCRF-CEM-7A cells, which overexpress RFC. […] Values are from one representative experiment in triplicate; performed three times. Error bars represent SEM, when not visible, they are within the size of the marker.

[2] = biological target: T2, PCFT (Homo sapiens, UniProt Q96NT5); experiment: PCFT competition assay: inhibition of [3H]-l-LV influx in CHO-cells lacking RFC and transfected with PCFT; assay type: cell-based
T2 construct: expressed in transfected cells; host or cells: CHO cells lacking RFC
T2 sequence (Q96NT5 1-459): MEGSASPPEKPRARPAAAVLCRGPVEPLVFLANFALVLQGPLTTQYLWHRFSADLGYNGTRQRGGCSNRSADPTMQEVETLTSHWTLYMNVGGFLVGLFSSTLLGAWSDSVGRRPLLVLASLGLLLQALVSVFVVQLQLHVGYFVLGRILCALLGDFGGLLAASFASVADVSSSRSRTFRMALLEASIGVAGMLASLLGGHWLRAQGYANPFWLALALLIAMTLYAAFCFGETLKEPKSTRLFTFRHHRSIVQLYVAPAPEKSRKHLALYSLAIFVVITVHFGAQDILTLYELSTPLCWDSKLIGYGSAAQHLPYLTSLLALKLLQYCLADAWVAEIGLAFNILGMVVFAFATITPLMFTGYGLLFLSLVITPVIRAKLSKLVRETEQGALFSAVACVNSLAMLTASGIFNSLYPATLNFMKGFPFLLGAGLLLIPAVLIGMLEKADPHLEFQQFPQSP
Experimental: The affinity for PCFT of PLX was assessed in competition with 2.5 μM ^3H-l-LV at pH 5.5 in CHO-cells lacking RFC and transfected with PCFT. […] […] Also for PCFT relative affinities were expressed as the concentration of unlabeled drug necessary to inhibit [^3H]-LV influx.

[3] = biological target: T3, FRα (Homo sapiens, UniProt P15328); experiment: Intact cell binding assay, displacement of radio-active folic acid from KB cells; conditions: inverse ratio of compound to displace 50% of radio-active folic acid, folic acid set at 1
T3 construct: endogenous in cells; host or cells: KB cells
T3 sequence (P15328 25-257): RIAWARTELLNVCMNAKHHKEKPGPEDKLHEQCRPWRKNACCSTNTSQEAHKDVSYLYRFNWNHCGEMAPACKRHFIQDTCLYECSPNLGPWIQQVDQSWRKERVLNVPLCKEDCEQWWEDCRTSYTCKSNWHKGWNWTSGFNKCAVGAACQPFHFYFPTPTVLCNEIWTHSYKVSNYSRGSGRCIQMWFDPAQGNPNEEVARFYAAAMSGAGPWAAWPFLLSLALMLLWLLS
Experimental: (§1) In order to determine to which extent PLX was a substrate for either the folate receptors, RFC or PCFT we used competition experiments in cell lines overexpressing either transporter ([Westerhof et al., 1995a], [b]; [Jansen et al., 1997]; [Ifergan et al., 2008]; [Lasry et al., 2008]; [van der Heijden et al., 2009]). For FRα and FRβ, we used an intact cell binding assay for competitive binding with KB cells and CHO-FRβ cells, respectively. […] For RFC we used a competition assay with 5 μM [^3H]-l-LV in CCRF-CEM/7A cells (RFC+++) for 2 min at 37°C. CEM-7A cells overexpress the RFC 30-fold over wild-type CCRF-CEM cells ([Jansen et al., 1990], [1997]).

[4] = biological target: T4, FRβ (Homo sapiens, UniProt P14207); experiment: Intact cell binding assay, displacement of radio-active folic acid from CHO-FRβ cells; conditions: folic acid set at 1
T4 construct: expressed in transfected cells; host or cells: CHO-FRβ cells
T4 sequence (P14207 17-255, species assumed): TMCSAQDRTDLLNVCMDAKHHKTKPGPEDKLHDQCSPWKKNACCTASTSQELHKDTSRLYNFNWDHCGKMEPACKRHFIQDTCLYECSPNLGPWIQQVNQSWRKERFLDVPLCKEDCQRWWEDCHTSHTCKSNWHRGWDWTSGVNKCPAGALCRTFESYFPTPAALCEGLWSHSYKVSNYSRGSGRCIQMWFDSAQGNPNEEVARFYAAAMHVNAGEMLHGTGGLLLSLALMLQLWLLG
Experimental: as §1

[5] = tested on: CCRF-CEM; experiment: Cell growth inhibition (MTT), CCRF-CEM; assay type: cell-based, human
Experimental: (§2) Cells were treated immediately with a drug dilution series in cell culture medium (75 μL/well). After an incubation period of approximately 72 h, growth in the 96-wells plates was assessed by adding 15 μL MTT solution (stock solution 5 mg/ml in PBS, final concentration 0.5 mg/ml in culture medium) to each well. After incubation for 3 h in the 5% CO2 incubator with 100% humidity at 37°C, 150 μL acidified 2-propanol was added to the plates to dissolve the formazan crystals. The yellow-colored MTT stock solution is taken up and reduced to a purple formazan in living cells, which directly correlates to the amount of viable cells. As final step, the plates were measured at 540 (or 492) nm by the SPECTRAfluor spectrophotometer.

[6] = tested on: HT cells; experiment: Cell growth inhibition (cell counting) and median-drug effect analysis, HT; assay type: cell-based; conditions: for IC50: HT
[7] = tested on: SUDHL-4 cells; experiment: Cell growth inhibition (cell counting) and median-drug effect analysis, SUDHL-4; assay type: cell-based; conditions: Homo sapiens, SU-DHL-4, read-out: IC50 (50% growth inhibition); SUDHL 4, 72 h exposure
[8] = tested on: SUDHL-5 cells; experiment: Cell growth inhibition (MTT) and median-drug effect analysis, SUDHL-5; assay type: cell-based
Experimental: as §2
Drug interaction in combination experiments was evaluated using the median-drug effect analysis using CalcuSyn software ([Bijnsdorp et al., 2011]). In order to evaluate combination indexes [CI] from different experiments, the CI values at Fraction Affected (FA) values >0.5 (preferably around 0.5, 0.75, and 0.9) were averaged for each specific experiment. The means of the separate experiments were subsequently averaged so that a mean ± Standard Error of the Mean (SEM) was calculated from three or more separate experiments. […] Drug combinations were designed based on the standard CalcuSyn approach in which a series of drug concentrations were combined in a fixed molar ratio, based on the IC50 of each drug. A variation of this approach was a sequential scheduling in which cells were exposed for 72 h to BLS, while in the combination PLX was added after 24 h and cells were exposed from 24 to 72 h. In the non-fixed ratio approach one drug was used at the IC25 (concentration that results in 25% growth inhibition) and the other drug was added in a concentration range.

[9] = tested on: Jeko-1; experiment: Cell growth inhibition (MTT) and median-drug effect analysis, Jeko-1; assay type: cell-based; conditions: Homo sapiens, read-out: IC50 (50% growth inhibition); Jeko-1, 72 h exposure
Experimental: Cells were plated in 96-wells flat bottom plates, at 3,000 or 6,000 cells per well in culture medium (75 μL/well) or in 24-wells plates (60,000 cells/well) for the counting assays for which a Coulter Counter was used. Cells were treated immediately with a drug dilution series in cell culture medium (75 μL/well). […] After incubation for 3 h in the 5% CO2 incubator with 100% humidity at 37°C, 150 μL acidified 2-propanol was added to the plates to dissolve the formazan crystals. The yellow-colored MTT stock solution is taken up and reduced to a purple formazan in living cells, which directly correlates to the amount of viable cells. As final step, the plates were measured at 540 (or 492) nm by the SPECTRAfluor spectrophotometer. […] Drug interaction in combination experiments was evaluated using the median-drug effect analysis using CalcuSyn software ([Bijnsdorp et al., 2011]). […] The means of the separate experiments were subsequently averaged so that a mean ± Standard Error of the Mean (SEM) was calculated from three or more separate experiments. […] Drug combinations were designed based on the standard CalcuSyn approach in which a series of drug concentrations were combined in a fixed molar ratio, based on the IC50 of each drug. […]

[10] = tested on: Karpas-299; experiment: Cell growth inhibition (MTT) and median-drug effect analysis, Karpas-299; assay type: cell-based; conditions: Homo sapiens, read-out: IC50 (50% growth inhibition); Karpas-299, 72 h exposure
Experimental: as §2
(§3) Drug interaction in combination experiments was evaluated using the median-drug effect analysis using CalcuSyn software ([Bijnsdorp et al., 2011]). In order to evaluate combination indexes [CI] from different experiments, the CI values at Fraction Affected (FA) values >0.5 (preferably around 0.5, 0.75, and 0.9) were averaged for each specific experiment. The means of the separate experiments were subsequently averaged so that a mean ± Standard Error of the Mean (SEM) was calculated from three or more separate experiments. […]

[11] = tested on: Hut-29; experiment: Cell growth inhibition (MTT) and median-drug effect analysis, Hut-29; assay type: cell-based; conditions: read-out: IC50 (50% growth inhibition); Hut-29, 72 h exposure
Experimental: as §2, §3

[12] = tested on: lymphoma cell lines; experiment: Cell growth inhibition and median-drug effect analysis, panel of lymphoma cell lines; assay type: cell-based; conditions: 72 hr exposure, panel of cell lines; read-out: IC50, range over the cell lines
Experimental: Cells were plated in 96-wells flat bottom plates, at 3,000 or 6,000 cells per well in culture medium (75 μL/well) or in 24-wells plates (60,000 cells/well) for the counting assays for which a Coulter Counter was used. Cells were treated immediately with a drug dilution series in cell culture medium (75 μL/well). […] After incubation for 3 h in the 5% CO2 incubator with 100% humidity at 37°C, 150 μL acidified 2-propanol was added to the plates to dissolve the formazan crystals. The yellow-colored MTT stock solution is taken up and reduced to a purple formazan in living cells, which directly correlates to the amount of viable cells. As final step, the plates were measured at 540 (or 492) nm by the SPECTRAfluor spectrophotometer. […] Drug interaction in combination experiments was evaluated using the median-drug effect analysis using CalcuSyn software ([Bijnsdorp et al., 2011]). […] The means of the separate experiments were subsequently averaged so that a mean ± Standard Error of the Mean (SEM) was calculated from three or more separate experiments. […] Drug combinations were designed based on the standard CalcuSyn approach in which a series of drug concentrations were combined in a fixed molar ratio, based on the IC50 of each drug. A variation of this approach was a sequential scheduling in which cells were exposed for 72 h to BLS, while in the combination PLX was added after 24 h and cells were exposed from 24 to 72 h.

[13] = tested on: HT cells; experiment: FACS propidium iodide staining: cell cycle distribution and cell death, HT; assay type: cell-based; conditions: drugs at their IC50, untreated 3.5%
Experimental: (§4) Propidium iodide staining (DNA staining) was used to determine cell cycle distribution and the extent of cell death. Cells (120,000 per well in a 24-wells plate) were exposed to PLX or BLS or the combination for 24, 48, or 72 h. Cells were harvested, suspended in 1.0 ml phosphate buffered saline/1% Bovine serum albumin and fixed with 70% ethanol. After centrifugation the pellet was resuspended in hypotonic propidium iodide (0.1 mg/ml), Triton-X-100 (0.1%), sodium citrate (1 mg/ml) and RNAse A (0.5 mg/ml) (final concentrations in saline) and stored in dark on ice for 30 min ([De Wilt et al., 2012]). DNA content of the cells to determine cell cycle effects and cell kill was analyzed by a FACScalibur (Becton Dickinson Immunocytometry Systems, San Jose, CA, United States) with an acquisition of 10,000 events as described previously ([De Wilt et al., 2012]).

[14] = tested on: SUDHL-4 cells; experiment: FACS propidium iodide staining: cell death, SUDHL-4; assay type: cell-based; conditions: drugs at their IC50, untreated 5.0%
Experimental: as §4

[15] = tested on: cell proliferation; design: method as in Tonner et al., 2006; conditions: ref Tonner et al., 2006; cited from earlier work

- RFC substrate affinity, fold better compared to methotrexate [1]: 6 fold
- RFC substrate affinity, fold better than levoleucovorin (l-LV) [1]: 2 fold
- IC50 ([1]; 5 μM [3H]-l-LV, 2 min, 37°C, CCRF-CEM/7A cells, read-out: RFC: concentration of unlabeled drug necessary to inhibit [3H]-l-LV uptake by 50%): 2800 ± 100 nM
- IC50 ([2]; 2.5 μM [3H]-l-LV, pH 5.5, 3 min, 37°C, read-out: PCFT: concentration of unlabeled drug necessary to inhibit [3H]-LV influx): 15000 nM and 14800 nM
- substrate for PCFT at physiological pH ([2]; pH 7.4): very poor substrate
- FR-α relative affinity [3]: 0.0035 and 0.0035 ± 0.0005
- FRβ relative affinity [4]: < 0.001
- IC50 ([5]; Homo sapiens, read-out: IC50 (50% growth inhibition), CCRF-CEM, 72 h exposure): 2.6 ± 0.4 nM
- IC50 [7]: 5.6 ± 0.4 nM
- IC50 ([8]; Homo sapiens, SU-DHL-5, read-out: IC50 (50% growth inhibition), SUDHL 5, 72 h exposure): 5.5 ± 0.9 nM
- IC50 [10]: 24.7 ± 5.3 nM
- IC50 [12]: 2.8 to 20 nM
SMILES: C#CCC(Cc1cnc2nc(N)nc(N)c2n1)c1ccc(C(=O)N[C@@H](CCC(=O)O)C(=O)O)cc1 (stereo partly shown) [PLX, Pralatrexate]
- reversal of cytotoxicity by l-LV ([5]; 5 μM l-LV, CEM cells): 2965 fold
- IC25 (concentration that results in 25% growth inhibition) ([6]; HT cells, 72 h): ~5 nM
- IC50 ([6]; Homo sapiens, 72 h, read-out: IC50 (50% growth inhibition), HT, 72 h exposure): ~10 nM
- IC50 ([6]; read-out: IC50 (50% growth inhibition), 72 h exposure): 7.4 ± 0.5 nM
- IC25 (concentration that results in 25% growth inhibition) ([8]; SUDHL-5 cells, 72 h): ~4 nM
- IC50 [9]: 18.7 ± 4.2 nM
- IC50 [11]: 2.8 ± 0.5 nM
- accumulation of cells in the sub-G1 phase (cell death) [13]: 13%
- accumulation of cells in the sub-G1 phase (cell death) [14]: 22.1%
- potency in suppressing cell proliferation relative to methotrexate [15]: one log more potent
